Values of other authors, collected in US20210195875A1 (SMC GLOBAL ASSET, INC., priority 2016, published 2021).
“Also recorded” adds a separate entry of the source.

Tests used:
[1] = test system: mice; conditions: icv STZ alone
[2] = test system: dopaminergic neuron

| Compound | aggregation of a pathologic protein such as amyloid and tau [1] | inflammation and neural function disorder ([1]; compared with a gene modified model) | toxicity in rat primary cultured cells [2] |
| --- | --- | --- | --- |
| CN(N=O)C(=O)N[C@H]1C(O)O[C@H](CO)[C@@H](O)[C@@H]1O (mixture of isomers) [icv STZ, streptozotocin] | no aggregation of a pathologic protein | intense inflammation and neural function disorder |  |
| Cn1c(N)nc2ncc(-c3ccccc3)cc21 [PhIP, 2-amino-1-methyl-6-phenyl-1H-imidazo[4,5-b] pyridine] |  |  | toxicity in a dopaminergic neuron selective manner; also recorded: toxicity in a dopamine nerve selective manner |
